Measurements taken from patent EP2975033A1, “Improved cysteine-protease inhibitors” (Universitat Jaume I, priority 2014, dated 2016).
pIC50: −log10 of the molar value. Converted amounts (≈) assume the structure as drawn. “And” between values parts separate entries of the source, which are not always exact repeats. Equal entries are not always repeated. Where two headings read alike, the source gives them in different places.

What was measured:
[1] = system: Trypanosoma brucei rhodesiense STIB900; assay: Activity against Trypanosoma brucei rhodesiense STIB900 (Alamar Blue); type: cell-based; conditions: Trypanosoma brucei
Experimental: (§1) For all the susceptibility assays with parasites and cells, each drug was tested in duplicate and each assay was repeated at least once. • a. Activity against Trypanosoma brucei rhodesiense STIB900. This stock was isolated in 1982 from a human patient in Tanzania and after several mouse passages cloned and adapted to axenic culture conditions (Baltz et al 1985) Minimum Essential Medium (50 µl) supplemented with 25 mM HEPES, 1g/l additional glucose, 1% MEM non-essential amino acids (100x), 0.2 mM 2-mercaptoethanol, 1 mM Na-pyruvate and 15% heat inactivated horse serum was added to each well of a 96-well microtiter plate. Serial drug dilutions of eleven 3-fold dilution steps covering a range from 100 to 0.002 µg/ml were prepared. Then 4x10^3 bloodstream forms of T. b. rhodesiense STIB 900 in 50 µl was added to each well and the plate incubated at 37 °C under a 5 % CO2 atmosphere for 70 h. 10 µl Alamar Blue (resazurin, 12.5 mg in 100 ml double-distilled water) was then added to each well and incubation continued for a further 2-4 h (Raz et al 1997). Then the plates were read with a Spectramax Gemini XS microplate fluorometer (Molecular Devices Cooperation, Sunnyvale, CA, USA) using an excitation wave length of 536 nm and an emission wave length of 588 nm. The IC50 values were calculated by linear regression (Huber 1993) from the sigmoidal dose inhibition curves using SoftmaxPro software (Molecular Devices Cooperation, Sunnyvale, CA, USA). Melarsoprol (Arsobal Sanofi-Aventis, received from WHO) is used as control. • b. Activity against T. cruzi. Rat skeletal myoblasts (L-6 cells) were seeded in 96-well microtitre plates at 2000 cells/well in 100 µL RPMI 1640 medium with 10% FBS and 2 mM I-glutamine. After 24 h the medium was removed and replaced by 100 µl per well containing 5000 trypomastigote forms of T. cruzi Tulahuen strain C2C4 containing the β-galactosidase (Lac Z) gene (Buckner et al. 1996). After 48 h the medium was removed from the wells and replaced by 100 µl fresh medium with or without a serial drug dilution of eleven 3-fold dilution steps covering a range from 100 to 0.002 µg/ml. After 96 h of incubation the plates were inspected under an inverted microscope to assure growth of the controls and sterility. Then the substrate CPRG/Nonidet (50 µl) was added to all wells. A color reaction developed within 2-6 h and could be read photometrically at 540 nm. Data were analyzed with the graphic programme Softmax Pro (Molecular Devices), which calculated IC50 values by linear regression (Huber 1993) from the sigmoidal dose inhibition curves. […] Activity against L. donovani axenic amastigotes. Amastigotes of L. donovani strain MHOM/ET/67/L82 were grown in axenic culture at 37 °C in SM medium (Cunnigham et al. 1977) at pH 5.4 supplemented with 10% heat-inactivated fetal bovine serum under an atmosphere of 5% CO2 in air. One hundred microlitres of culture medium with 10^5 amastigotes from axenic culture with or without a serial drug dilution were seeded in 96-well microtitre plates. Serial drug dilutions of eleven 3-fold dilution steps covering a range from 90 to 0.002 µg/ml were prepared. After 70 h of incubation the plates were inspected under an inverted microscope to assure growth of the controls and sterile conditions. 10 µl of Alamar Blue (12.5 mg resazurin dissolved in 100 ml distilled water) (Mikus and Steverdig. 2000) were then added to each well and the plates incubated for another 2 h. Then the plates were read with a Spectramax Gemini XS microplate fluorometer (Molecular Devices Cooperation, Sunnyvale, CA, USA) using an excitation wave length of 536 nm and an emission wave length of 588 nm. Data were analyzed using the software Softmax Pro (Molecular Devices Cooperation, Sunnyvale, CA, USA). Decrease of fluorescence (= inhibition) was expressed as percentage of the fluorescence of control cultures and plotted against the drug concentrations. From the sigmoidal inhibition curves the IC50 values were calculated. • d.

[2] = system: T. cruzi Tulahuen strain C2C4; assay: Activity against T. cruzi in L-6 cells (beta-galactosidase, CPRG); type: cell-based; conditions: Trypanosoma cruzi, TULAHUEN, L6
Experimental: as §1

[3] = system: L. donovani strain MHOM/ET/67/L82; assay: Activity against L. donovani axenic amastigotes (Alamar Blue); type: cell-based; conditions: for IC50: Leishmania donovani
Experimental: as §1

[4] = system: P. falciparum NF54 strain; assay: Activity against P. falciparum, 3H-hypoxanthine incorporation assay; type: cell-based; conditions: Plasmodium falciparum, NF54
Cathepsin B (human) = molecular target: T1, Cathepsin B (human) (Homo sapiens, UniProt P07858); assay: Protease assay, fluorogenic substrate Z-Phe-Arg-AMC: Cathepsin B; type: biochemical; conditions: CB=CathepsinB; for pIC50: 25 °C, pH 6.5, 100 µM substrate, read-out: CBIC50micM
T1 construct: Cathepsin B (human liver) Calbiochem; purchased Calbiochem; host or cells: human liver (tissue-derived)
Source text: (§2) 2.1.1. Protease Assays as shown in tables 1 and 2: Cathepsin L (human), Cathepsin B (human), Rhodesain (Trypanosoma brucei rhodesiense), Falcipain 2 (Plasmodium falciparum)
(§3) Enzyme assays used to identify inhibitors of the target cysteine proteases. The effect is detected measuring fluorescence increase due to hydrolysis of fluorogenic substrates by the target enzymes in absence and presence of potential inhibitors.
(§4) • a. Proteins (enzymes): • Cathepsin L (human liver) Calbiochem • Cathepsin B (human liver) Calbiochem • Rhodesain: recombinantly expressed according to ref.: Caffrey, C. R.; Hansell, E.; Lucas, K. D.; Brinen, L. S.; Hernandez, A. A.; Cheng, J.; Gwaltney, S. L., II; Roush, W. R.; Stierhof, Y. D.; Bogyo, M.; Steverding, D.; McKerrow, J. H. Active site mapping, biochemical properties and subcellular localization of rhodesain, the major cysteine protease of Trypanosoma • Falcipain 2: recombinantly expressed according to ref.: Pandey, K. C.; Wang, S. X.; Sijwali, P. S.; Lau, A. L.; McKerrow, J. H.; Rosenthal, P. J. The Plasmodium falciparum cysteine protease falcipain-2 captures its substrate, hemoglobin, via a unique motif. Proc. Natl. Acad. Sci. U.S.A. 2005, 102, 9138-9143. • b. Buffers: • Cathepsin B: 50 mM Tris-Puffer pH 6.5 mit 2 mM DTT, 5 mM EDTA, 200 mM NaCl, 0.005% Brij35 • Cathepsin L: 50 mM Tris-Puffer pH 6.5 mit 2 mM DTT, 5 mM EDTA, 200 mM NaCl, 0.005% Brij35 • Rhodesain: 50 mM Acetat-Puffer pH 5.5 mit 5 mM DTT, 5 mM EDTA, 200 mM NaCl, 0.005% Brij35 • Falcipain 2: 50 mM Acetat-Puffer pH 5.5 mit 5 mM DTT, 5 mM EDTA, 200 mM NaCl, 0.005% Brij35 • c. Substrates: • Cathepsin L: 6,25 µM Z-Phe-Arg-7-amino-4-methylcumarin, HCl von Bachem, Ex 380 nm, Em 460 nm • Cathepsin B: 100 µM Z-Phe-Arg-7-amino-4-methylcumarin, HCl von Bachem, Ex 380 nm, Em 460 nm • Rhodesain: 10µM Z-Phe-Arg-7-amino-4-methylcumarin, HCl von Bachem, Ex 380 nm, Em 460 nm • Falcipain 2: 25µM Z-Phe-Arg-7-amino-4-methylcumarin, HCl von Bachem, Ex 380 nm, Em 460 nm • Reference substance(s)/positive control(s): E64 • d. Solvent for inhibitors and substrates: DMSO 99,5% (GC) DC4540, Sigma • e. Measurement device: Tecan Fluorescence spectrophotometer infinite F200 Pro • f. Well plates: 96 well plates, Lia-Plate White, Greiner bio-one, flat bottom, high binding • g. Methodology: Substrates and inhibitor stock solutions are prepared in DMSO and diluted with the respective assay buffer (final DMSO concentration: […]). Enzyme stock solutions are diluted with assay buffer to yield a fluorescence increase of dF/min ≈ _20. Total volume: 200 µL (180 µL of assay buffer, 5 µL of enzyme solution, 10 µL of DMSO or inhibitor solution, 5 µL of substrate solution). Assays are started by the addition of substrate solution. Fluorescence increase is detected over a period of 10 - 30 min, depending on time dependent (30 min) or non-time dependent (10 min) inhibition. • h. Temp: 25 °C • i. DATA-[…] • Software: Grafit 5.013 • Ki values are calculated from IC50 values (obtained by the 4-parameter IC50 equation) using the Chen-Prusoff equation: Ki=IC50/(1 + [S]/Km)
(§5) In vitro inhibition of cysteine-proteases cruzain (CR) (Trypanosoma cruzi (T. cruzi)), rhodesain (RD) (T. brucei), cathepsin B (CB), falcipain (FP2) (Plasmodium falciparum) and cathepsin L (CL) was assessed by quantification of the resulting fluorescence emission of the proteolytic breakdown of synthetic compound Z-Phe-Arg-AMC (Bachem). The results of this determination are shown in tables 1 and 2 illustrated above.

Cathepsin L (human) = molecular target: T2, Cathepsin L (human) (Homo sapiens, UniProt P07711); assay: Protease assay, fluorogenic substrate Z-Phe-Arg-AMC: Cathepsin L; type: biochemical
T2 construct: Cathepsin L (human liver) Calbiochem; purchased Calbiochem; host or cells: human liver (tissue-derived)
T2 sequence (P07711 114-333): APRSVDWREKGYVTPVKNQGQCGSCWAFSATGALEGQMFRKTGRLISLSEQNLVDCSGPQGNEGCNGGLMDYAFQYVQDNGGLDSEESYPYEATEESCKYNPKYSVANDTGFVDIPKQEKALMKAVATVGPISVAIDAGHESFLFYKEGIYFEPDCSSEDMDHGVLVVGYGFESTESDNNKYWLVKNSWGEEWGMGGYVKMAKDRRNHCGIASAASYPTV
Source text: as §2, §3, §4, §5

Falcipain 2 = molecular target: T3, Falcipain 2 (Plasmodium falciparum, UniProt Q8I6U4); assay: Protease assay, fluorogenic substrate Z-Phe-Arg-AMC: Falcipain 2; type: biochemical; conditions: FP2=Falcipain2
T3 construct: made in house
T3 sequence (Q8I6U4 244-484): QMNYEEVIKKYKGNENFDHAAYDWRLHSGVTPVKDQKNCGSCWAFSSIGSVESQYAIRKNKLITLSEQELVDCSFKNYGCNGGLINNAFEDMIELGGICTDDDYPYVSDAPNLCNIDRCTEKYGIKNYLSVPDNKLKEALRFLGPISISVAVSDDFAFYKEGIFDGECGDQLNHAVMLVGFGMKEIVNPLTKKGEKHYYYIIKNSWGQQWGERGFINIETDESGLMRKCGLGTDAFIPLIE
Source text: as §2, §3, §4, §5

Rhodesain = molecular target: T4, Rhodesain (Trypanosoma brucei rhodesiense, UniProt Q95PM0); assay: Protease assay, fluorogenic substrate Z-Phe-Arg-AMC: Rhodesain; type: biochemical; conditions: for pIC50: RD=Rhodesain, 25 °C, pH 5.5, 10µM substrate
T4 construct: made in house
T4 sequence (Q95PM0 entry or part of it): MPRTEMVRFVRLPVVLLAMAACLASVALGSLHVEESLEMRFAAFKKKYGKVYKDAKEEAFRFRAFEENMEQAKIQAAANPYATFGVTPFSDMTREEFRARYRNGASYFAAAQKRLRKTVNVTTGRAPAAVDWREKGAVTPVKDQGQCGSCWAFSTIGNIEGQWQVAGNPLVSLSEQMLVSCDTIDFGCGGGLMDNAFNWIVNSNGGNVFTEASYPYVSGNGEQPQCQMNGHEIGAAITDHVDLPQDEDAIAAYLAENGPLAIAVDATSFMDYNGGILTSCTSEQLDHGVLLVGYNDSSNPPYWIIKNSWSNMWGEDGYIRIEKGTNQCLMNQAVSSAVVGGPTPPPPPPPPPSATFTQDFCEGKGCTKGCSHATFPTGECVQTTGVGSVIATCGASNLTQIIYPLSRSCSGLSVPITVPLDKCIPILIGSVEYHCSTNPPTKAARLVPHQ
Source text: as §2, §3, §4, §5

cruzain (CR) = cruzain (CR) (Trypanosoma cruzi, UniProt P25779); assay: In vitro inhibition of cruzain, fluorescence of Z-Phe-Arg-AMC breakdown; type: biochemical
cruzain (CR), sequence (P25779 123-467): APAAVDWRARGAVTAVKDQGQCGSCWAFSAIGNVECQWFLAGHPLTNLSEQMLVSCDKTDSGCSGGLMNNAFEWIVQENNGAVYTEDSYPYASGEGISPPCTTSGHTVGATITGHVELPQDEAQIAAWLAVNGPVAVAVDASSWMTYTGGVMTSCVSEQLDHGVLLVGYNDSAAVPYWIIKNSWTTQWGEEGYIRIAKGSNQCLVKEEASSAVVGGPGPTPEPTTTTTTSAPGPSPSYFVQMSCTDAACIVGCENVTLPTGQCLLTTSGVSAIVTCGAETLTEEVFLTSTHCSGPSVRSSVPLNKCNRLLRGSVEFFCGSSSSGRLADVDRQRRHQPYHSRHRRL
Experimental: as §3, §5

`CCOC(=O)/C=C/C(=O)[C@H](CCc1ccccc1)NC(=O)[C@H](CC(C)C)NC(=O)OCc1ccccc1` [FGA-47] showed an IC50 ([1]; 70 h, replicate 1, bloodstream forms, 70 h, read-out: T.b.rhod. IC50 repl1) of 1.68 mg/L (≈ 3.3 µM), an IC50 ([1]; 70 h, replicate 2, bloodstream forms, 70 h, read-out: T.b.rhod. IC50 repl2) of 0.675 mg/L (≈ 1.33 µM) and an IC50 ([1]; mean of replicates, read-out: T.b.rhod. IC50 mean) of 1.18 mg/L (≈ 2.32 µM). The IC50 ([2]; mean of replicates, read-out: T.cruzi. IC50 mean) was 3.63 mg/L (≈ 7.14 µM), the IC50 ([2]; replicate 1, L-6 cells, 96 h, read-out: T.cruzi. IC50 repl1) was 5.17 mg/L (≈ 10.2 µM) and the IC50 ([2]; replicate 2, L-6 cells, 96 h, read-out: T.cruzi. IC50 repl2) was 2.09 mg/L (≈ 4.11 µM). It also gave an IC50 ([3]; mean of replicates, read-out: L.don. ax am IC50 mean) of 0.048 mg/L (≈ 0.0944 µM), an IC50 ([3]; replicate 1, axenic amastigotes, pH 5.4, 70 h, read-out: L.don. ax am IC50 repl1) of 0.044 mg/L (≈ 0.0865 µM) and an IC50 ([3]; replicate 2, axenic amastigotes, pH 5.4, 70 h, read-out: L.don. ax am IC50 repl2) of 0.052 mg/L (≈ 0.102 µM). The IC50 ([4]; mean of replicates, read-out: P.falc NF54 IC50 mean) was 0.821 mg/L (≈ 1.61 µM), the IC50 ([4]; replicate 1, erythrocytic stages, read-out: P.falc NF54 IC50 repl1) was 0.921 mg/L (≈ 1.81 µM) and the IC50 ([4]; replicate 2, erythrocytic stages, read-out: P.falc NF54 IC50 repl2) was 0.72 mg/L (≈ 1.42 µM).
For `CCCCCCCCCCCCCCCCOP(=O)([O-])OCC[N+](C)(C)C` [Miltefosine, reference compound], the IC50 ([3]; 70 h, pH 5.4, replicate 2, axenic amastigotes, pH 5.4, 70 h, read-out: L.don. ax am IC50 repl2) was 0.071 mg/L (≈ 0.174 µM), the “L.don. ax am IC50 mean” value ([3]; mean of replicates) was 0,059 micrograms/mL and 1,44 micrograms/mL and the “L.don. ax am IC50 repl1” value ([3]; replicate 1, axenic amastigotes, pH 5.4, 70 h) was 0,046 micrograms/mL and 1,44 micrograms/mL.
With `CCOC(=O)/C=C/C(=O)[C@H](CCc1ccccc1)NC(=O)[C@H](Cc1ccccc1)NC(=O)OCc1ccccc1` [drawing 38] the “CB(K2nd(M-1s-1))” value (Cathepsin B (human)) was 45486 M⁻¹ s⁻¹, the pIC50 (Cathepsin B (human)) was 7.15 and the “CL(K2nd(M-1s-1))” value (Cathepsin L (human); CL=CathepsinL) was 45364 M⁻¹ s⁻¹. For the same compound, the pIC50 (Cathepsin L (human); CL=CathepsinL; 25 °C, pH 6.5, 6,25 µM substrate; read-out: CL(IC50)) was 7.30, the “FP2(K2nd(M-1s-1))” value (Falcipain 2) was 17099 M⁻¹ s⁻¹ and the “RD(K2nd(M-1s-1))” value (Rhodesain) was 1274510 M⁻¹ s⁻¹. For the same compound, the pIC50 (Rhodesain) was 7.51.
`CCOC(=O)/C=C/C(=O)[C@H](CCc1ccccc1)NC(=O)[C@H](CC(C)C)NC(=O)OCc1ccccc1` [drawing 39] was tested, and the “CB(K2nd(M-1s-1))” value (Cathepsin B (human)) was 42393 M⁻¹ s⁻¹, the pIC50 (Cathepsin B (human)) was 7.30 and the “CL(K2nd(M-1s-1))” value (Cathepsin L (human); CL=CathepsinL) was 29885 M⁻¹ s⁻¹. The pIC50 (Cathepsin L (human); read-out: CL(IC50); CL=CathepsinL; 25 °C, pH 6.5, 6,25 µM substrate) was 6.59, the “FP2(K2nd(M-1s-1))” value (Falcipain 2) was 6035 M⁻¹ s⁻¹ and the “RD(K2nd(M-1s-1))” value (Rhodesain) was 116147 M⁻¹ s⁻¹. The pIC50 (Rhodesain) was 6.84, the “CR(K2nd(M-1s-1))” value (cruzain (CR)) was 60784 M⁻¹ s⁻¹ and the pIC50 (cruzain (CR)) was 7.11.
